This is an account of results in patent US20150038541A1, “COMPOSITION AND METHODS FOR CELL MODULATION” (APOSIGNAL BIOSCIENCE LLC, priority 2012, published 2015).

Type in all cases: cell-based, human
Series [1] relates to HeLa cells. The experiment in a line: MTS cell viability of HeLa cells treated with anticancer drug with or without AS-7 (48 hours). The conditions noted are these: for Dose Reduction Index (DRI), combination of AS-7 with bortezomib: CalcuSyn. The method, then: HeLa cells were seeded in a 96 well tissue culture plate (2000 cells per well). The compounds, 10 μM AS-7 and bortezomib (BioVision, Inc., Milpitas, Calif.) at the concentrations indicated in FIG. 1, were added the following day. AS-7 was prepared according to the Ugi reaction by combination of the four components: isocyanide (III), m-cyanobenzaldehyde (IV), 2-benzoylbenzoic acid (V), and histamine (VI) in refluxing methanol (Ref. http://www.occhem.com/synthesis/2561 2.html). The Medicinal Chemistry unit of Southern Research Institute (2000 Ninth Avenue South Birmingham, Ala. 35205) was contracted by a fee for service agreement to synthesize AS-7.
After 48 hours, MTS (3-(4,5-dimethylthiazol-2-yl)-5-(3-carboxymethoxyphenyl)-2-(4-sulfophenyl)-2H-tetrazolium) was added and absorbance was measured at 490 nm. […] Values in FIG. 1 are relative to controls that contained only the vehicle in which the drugs were dissolved. Vehicle had no effect on cell viability. Error bars in FIG. 1 are not visible if they are smaller than the symbols. […]
HeLa cells were seeded in a 96 well tissue culture plate (2000 cells per well). The compounds, 10 μM AS-7 and bortezomib at the concentrations indicated in FIG. 9 were added the following day. After 48 hours, MTS was added and absorbance was measured at 490 nm. […] Values are relative to controls that contained only the vehicle in which the drugs were dissolved. Vehicle had no effect on cell viability.

The test system of series [2] is HeLa cells. Nature of the series: Cell proliferation (growth rate, crystal violet) of HeLa cells with AS-7 by itself. The method, then:
Cell lines were plated at a sparse density in order to measure the rate of growth over a several day interval and obviate the effect of limited culture surface on the growth rate. The impact of AS-7 on cell proliferation became clear after two days and was dramatic after several days. While the impact of AS-7 was modest after two days, it became substantial after more than two days because the reduction in growth rate has the greatest impact on cell number after the cultures have expanded by several population doublings. […] AS-7 inhibited the rate of cell proliferation by 67% at a concentration of approximately 10 μM (FIG. 10). […] The following cell lines were used to determine the effect of AS-7 on the rate of proliferation: HeLa, melanoma […], ovarian A2780, and breast T47D. All cell line were grown in culture medium (RPMI 1640 for the breast cancer cells and Dulbecco's modified Eagle's medium for the other cell lines) containing 10% heat inactivated fetal bovine serum without antibiotics (penicillin and streptomycin).

Series [3] relates to ovarian A2780 cells. Nature of the series: Cell proliferation (growth rate, crystal violet) of ovarian A2780 cells with AS-7 by itself. The settings on record: 10 μM AS-7, vehicle doubling time 1.0 days. The method, then:
(§1) To examine the effect of AS-7 on the growth of several different cell lines, AS-7 at 10 μM was added to the culture medium the day after seeding the cells. The following cell lines were used to determine the effect of AS-7 on the rate of proliferation: HeLa, melanoma A2620, ovarian A2780, and breast T47D. All cell line were grown in culture medium (RPMI 1640 for the breast cancer cells and Dulbecco's modified Eagle's medium for the other cell lines) containing 10% heat inactivated fetal bovine serum without antibiotics (penicillin and streptomycin). […] The doubling times in HeLa, melanoma, ovarian and breast cancer derived cells were 0.9, 2.5, 1.0, and 1.4 days, respectively. AS-7 increased the doubling times of the HeLa, melanoma, ovarian, and breast cancer derived cells by 1.3, 1.3, 1.6, and 3.1 fold, respectively (FIGS. 11 through 14).

The subject of series [4] is breast T47D cells. The experiment in a line: Cell proliferation (growth rate, crystal violet) of breast T47D cells with AS-7 by itself. The settings on record: 10 μM AS-7, vehicle doubling time 1.4 days. The method, then: as §1
Series [5] deals with breast T47D cells. The experiment in a line: FACS cell cycle analysis after propidium iodide staining of breast T47D cells. The settings on record: 10 μM AS-7. The method, then:
FIG. 16 illustrates that AS-7 evokes accumulation of breast T47D cells in the G0-G1 phase of the cell cycle. T47D cells were harvested one, two, or three days after treatment with or without AS-7, stained with propidium iodide and subjected to analysis by FACS (Fluorescence Activated Cell Sorter).
A single addition of 10 μM AS-7 for 1 day to 7 or more days was sufficient to evoke accumulation in the Go-G1 phase of the cell cycle (FIGS. 15 and 16) (data not shown). […] HeLa cells were treated with nocodazole (100 ng/ml) for 12 h which evoked accumulation of rounded, loosely attached cells in mitosis. The mitotic cells were harvested and treated with or without 10 μM AS-7 in the absence of nocodazole (Released, 16 hours).

The subject of series [6] is HeLa cells. The experiment in a line: Glucose utilization and acid production in HeLa cell culture medium. The settings on record: 10 μM AS-7, after 5 days. The method, then: FIG. 19 illustrates that AS-7 increases glucose utilization and acid production in HeLa cells. HeLa cells were cultured (100 mm diameter plates) in medium containing 4.5 mg/ml glucose at pH 7.4. After 5 days medium glucose was determined by standard methodology and the pH of the medium was measured with a pH meter.
Because it was repeatedly observed that AS-7 by itself decreased the pH of the culture medium, it was hypothesized that AS-7 might stimulate glucose utilization and the production of lactic acid, which is a major acidic product of glucose metabolism. HeLa cells were cultured in 100 millimeter diameter tissue culture plates in order to monitor the pH and the glucose concentration of the culture medium. Glucose was quantified with a glucose test strip and meter, as commonly used to monitor fluctuations in blood glucose. A pH meter was used to record the pH of the medium. Control cultures (“Control”) were treated with the appropriate amount of the vehicle used dissolve AS-7. Treated cultures (“AS-7”) incubated with 10 μM AS-7.

By IC50 is commonly meant the concentration that gives 50% inhibition.

As for `N#Cc1cccc(C(C(=O)NCC(c2ccccc2)c2ccccc2)N(CCc2c[nH]cn2)C(=O)c2ccccc2C(=O)c2ccccc2)c1` (stereo not shown) [AS-7], the “shift of NLVS concentration dependence (HeLa cell viability)” value in series [1] (10 μM AS-7, 48 hours, MTS) is listed as “markedly shifted the NLVS concentration dependence to the left”. For the same compound, the HeLa cell viability entry in series [1] (AS-7 alone) is listed as “no loss of cell viability”. Also, the “Dose Reduction Index (DRI), combination of AS-7 with bortezomib” value in series [1] (HeLa cells, 12 nM bortezomib) is given as 7.3; in series [1] (HeLa cells, 16 nM bortezomib) it was 18; in series [1] (HeLa cells, 20 nM bortezomib) it was 72. Moreover, in series [1] (HeLa cells, 10 μM AS-7), the “increase in potency of the cytotoxic action of bortezomib by AS-7” value is recorded as “approximately 3.5 fold”. Moreover, the “rate of growth of HeLa cells” value in series [2] (AS-7 alone) is reported as “moderately decreased”. Further, the “cell viability, microscopic observation of the cultures” value in series [2] (AS-7 by itself, each of the cancer-derived cell lines tested) was “did not decrease cell viability”. In addition, the “inhibition of the rate of cell proliferation” value in series [2] (HeLa cells (FIG. 10), approximately 10 μM AS-7) amounted to 67%. Also, the “increase of doubling time” value in series [2] (HeLa cells, 10 μM AS-7, vehicle doubling time 0.9 days) was determined as 1.3 fold; in series [3] it was 1.6 fold; in series [4] it was 3.1 fold. In series [2] (Homo sapiens, HeLa cells (FIG. 10), AS-7 by itself, read-out: IC50 for growth inhibition), the IC50 is about 7 µM. In series [5], the “cell cycle distribution (FACS, propidium iodide)” value is on record as “evoked the accumulation”. For the same compound, in series [6], the “glucose concentration of the culture medium relative to control” value is “significantly decreased”. In series [6], the “pH of the culture medium relative to control” value is given as “significantly decreased”.
